# Where two headings read alike, the source gives them in different places.
# Legend:
# [1] = test system: 5-HT (Von Bezold-Jarisch reflex); test: Von Bezold-Jarisch reflex evoked by i.v. 5-HT in the anaesthetized rat, antagonism; type: in vivo, rat (male Sprague-Dawley); details: for ED50 / minimal effective dose: iv; for ED50: read-out: ED50 (inhibits the response to 5-HT by 50%); for minimal effective dose: read-out: threshold dose (just inhibits the response to 5-HT); for potency relative to metoclopramide: Von Bezold-Jarisch reflex, comparative test
# Source text: The activity of these compounds against 5-HT can be assessed in vivo by measurement of the effect of the compound on the Von Bezold-Jarisch Reflex induced by 5-HT injected intravenously into the rat (A.S. Paintal, Physiol. Rev. 53, 159-227, 1973). The transient cardiac slowing arises from an increased […] vagus activity arising from stimulation by 5-HT of sensory afferent fibres in and around the heart (see Example 3).
# Antagonism of the Von Bezold-Jarisch reflex evoked by 5-HT in the anaesthetized rat was measured for tropyl 3,5-dimethoxybenzoate (A), tropyl 3,5-dimethylbenzoate (B) and tropyl 3,5-dichlorobenzoate (C) using the following method.
# Male Sprague-Dawley rats weighing 250-300 g are anaesthetized with urethane, 1.25 g/kg injected intraperitoneally and set up for recording blood pressure and heart rate as described in J. R. Fozard et al, J. Cardiovas. Pharmacol. 2, 229-245 (1980). A submaximal dose of 5-HT ([…]) is given repeatedly into the cannulated jugular vein and changes in heart rate are quantified. Antagonists are given intravenously and the doses required to just inhibit the response to 5-HT (threshold dose) or to inhibit the response to 5-HT by 50% (ED50) are determined.
# rat uterus, 5-HT = test: Selectivity: inhibition of response to 5-HT, rat uterus; type: biochemical; details: agonist 5-HT, read-out: concentration to inhibit standard response to stimulants by 50% (IC50)
# Source text: (§1) A selection of classical in vitro pharmacological test preparations (rat uterus, rat fundus, guinea-pig ileum, guinea-pig taenia caeci) were set up according to well-established procedures (see "Pharmacological Experiments on Isolated Preparations" Staff of the Department of Pharmacology, University of Edinburgh, Livingstone, Edinburgh 1970). Various spasmogens were used to elicit contraction of these tissues though mechanisms other than the 5-HT "M" receptor. The concentrations of tropyl 3,5-dimethoxybenzoate (A), tropyl 3,5-dimethylbenzoate (B) and tropyl 3,5-dichlorobenzoate (C) which reduced the effects of a submaximal dose of agonist by 50% were determined (IC50). The results are set forth in Table VI below in which the compounds are identified by the reference letters used above.
# rat fundus, 5-HT = test: Selectivity: inhibition of response to 5-HT, rat fundus; type: biochemical; details: agonist 5-HT, read-out: concentration to inhibit standard response to stimulants by 50% (IC50)
# Source text: as §1
# rat uterus, oxytocin = test: Selectivity: inhibition of response to oxytocin, rat uterus; type: biochemical; details: agonist oxytocin, read-out: concentration to inhibit standard response to stimulants by 50% (IC50)
# Source text: as §1
# [2] = test system: rat fundus, acetylcholine; test: Selectivity: inhibition of response to acetylcholine, rat fundus; type: biochemical; details: agonist acetylcholine, read-out: concentration to inhibit standard response to stimulants by 50% (IC50)
# Source text: as §1
# [3] = test system: guinea-pig ileum, acetylcholine; test: Selectivity: inhibition of response to acetylcholine or carbachol, guinea-pig ileum; type: biochemical; details: read-out: concentration to inhibit standard response to stimulants by 50% (IC50)
# Source text: as §1
# **Carbachol agonist instead of acetylcholine
# [4] = test system: guinea-pig ileum, histamine; test: Selectivity: inhibition of response to histamine, guinea-pig ileum; type: biochemical; details: agonist histamine, read-out: concentration to inhibit standard response to stimulants by 50% (IC50)
# Source text: as §1
# [5] = test system: guinea-pig taenia caeci, calcium; test: Selectivity: inhibition of response to calcium, guinea-pig taenia caeci; type: biochemical; details: agonist calcium, guinea-pig taenia caeci in potassium depolarized Tyrode solution; read-out: concentration to inhibit standard response to stimulants by 50% (IC50)
# Source text: as §1
# *In potassiumdepolarized Tyrode solution
# mouse and rat = test: Acute toxicity (LD50) in the mouse and rat, overall statement; type: in vivo
# [6] = test system: patients with migraine or cluster headaches; test: Pilot study of tolerance and efficacy, intravenous, in patients with migraine or cluster headaches; type: in vivo, human (patients); details: for headache response: Patient No. 6
# Method: This study was designed to evaluate tolerance and, if possible, efficacy of intravenous tropyl 3,5-dichlorobenzoate in patients with migraine or cluster headaches.
# Eight patients (4 males), aged 27-47 with known headache disorders of 5-27 years duration (see Table VII) took part in the study but Patients Nos. 2 and 4 had cluster not migraine headaches and the cause of headaches in Patient No. 6 was unknown.
# Tropyl 3,5-dichlorobenzoate was provided as a sterile solution, 1 mg/ml; the desired dose to be diluted in 10 ml normal saline for intravenous infusion over a 2 minute period. No other therapy was taken for at least 24 hours before treatment or during the course of therapy.
# Doses as high as 14 mg/day and 9 mg single dose were administered without any signs of intolerance.
# acute migraine attack = details: slow intravenous injection, 10 mg; J. B. Hughes 1977; cited from earlier work
# [7] = Patient 6, after 4 mg dose i.v.
Compound,ED50 ([1]; Rattus norvegicus) [µg/kg],minimal effective dose ([1]; Rattus norvegicus) [µg/kg],potency relative to metoclopramide [1],"IC50 (rat uterus, 5-HT) [µM]","IC50 (rat fundus, 5-HT) [µM]","IC50 (rat uterus, oxytocin) [µM]",IC50 [2] [µM],IC50 ([3]; agonist acetylcholine) [µM],IC50 [4] [µM],IC50 [5] [µM],toxicity as shown by LD50 values (mouse and rat),other results
"COc1cc(OC)cc(C(=O)OC2CC3CCC(C2)N3C)c1 (stereo not shown) [A, tropyl 3,5-dimethoxybenzoate]",13.7 ± 1.2,6.96 ± 0.9,many times more potent than metoclopramide,> 52.5,40,> 52.5,13.1,9.56,6.61,36.1,relatively non-toxic,–
"Cc1cc(C)cc(C(=O)OC2CC3CCC(C2)N3C)c1 (stereo not shown) [B, tropyl 3,5-dimethylbenzoate]",6.07 ± 0.72,3.57 ± 0.33,many times more potent than metoclopramide,–,–,–,–,–,–,34.2,relatively non-toxic,IC50 ([3]; carbachol agonist instead of acetylcholine): 9.59 µM
"CN1C2CCC1CC(OC(=O)c1cc(Cl)cc(Cl)c1)C2 (stereo not shown) [C, tropyl 3,5-dichlorobenzoate]",22 ± 3.2,7.72 ± 0.63,many times more potent than metoclopramide,25.4,> 50.9,> 50.9,12.4,8.05,3.68,28.6,relatively non-toxic,"response ([6]; Patient 1, i.v. 1 mg, then 1 hour later, 2 mg): no effect on headache or nausea; response ([6]; Patient 2 (cluster), i.v. 1 mg): no effect; response ([6]; Patient 4 (cluster), i.v. 3 mg): no effect; effect of increased doses ([6]; Patient 6, 5 mg bid × 2 days, then 6 mg bid × 11 days i.v.): no greater effect; duration of reduction of pain intensity [6, 7]: 4 to 8 h; time to reduction of pain intensity [6, 7]: ≤ 30 min; reduction of pain intensity ([6]; Patient 6, within 30 minutes after 4 mg dose i.v.): 70-80%; response ([6]; Patient 7, i.v. 3 mg × 1 day, then 5 mg × 2 days, then 7 mg × 1 day): no effect; response during increasing doses ([6]; Patient 8, i.v. 6 mg × 1 day, 7 mg × 2 days, 9 mg × 1 day): maintained during increasing doses; reduction of pain ([6]; Patient 8, with 3 mg i.v.): about 30%; headache response ([6]; 3 mg single doses i.v.): slight reduction in their bilateral headache; headache response ([6]; 4 mg bid i.v.): further amelioration; time after stopping therapy to return of headaches to pretreatment intensity ([6]; Patient No. 8): 6 to 7 days; symptom response ([6]; Patient No. 8, first dose of 3 mg i.v.): decrease in all symptoms; repeated dose well tolerated (highest) ([6]; i.v. b.i.d., patients with headaches): up to 7 mg; cumulative dose well tolerated (highest) ([6]; i.v., over 18 days): 177 mg; dose per day administered without any signs of intolerance (highest) ([6]; i.v., patients): 14 mg/day; patients with marked diminution of headache and associated symptoms ([6]; patients treated with repeated doses (Patients Nos. 6 and 8), i.v.): two of the three patients; pain intensity and associated symptoms ([6]; some patients treated with doses of 3 mg or greater, i.v.): ameliorated"
"CCN(CC)CCNC(=O)c1cc(Cl)c(N)cc1OC [metoclopramide, reference compound]",–,–,–,–,–,–,–,–,–,–,–,"minimal effective dose ([1]; antagonist i.v., anaesthetized rat): 233 ± 66.3 µg/kg; relief of acute migraine attack (acute migraine attack): immediate relief of acute migraine attack"

# Source: patent publication US4563465A, “Treatment of migraine with substituted tropyl benzoate derivatives” (Merrell Dow Pharmaceuticals Inc., priority 1981, dated 1986)
